# Data taken from ChEMBL document CHEMBL3885861, “Open TG-GATES”.
# Species: Rattus norvegicus
# Assay: Open TG-GATES - Regimen: Daily Repeat
# Type: toxicity, organism-based, Sprague-Dawley
# Set-up: regimen Daily Repeat, gender Male, age 6 weeks
# Details: in vivo, po, route gavage; for APTT / Bas / Eos / Fbg / Hb / Ht / Lym / MCHC / MCV / Mono / Neu / PT / Plat / RBC / Ret / WBC: tissue Blood; for KIDNEY_L / KIDNEY_R / KIDNEY_TOTAL: tissue Kidney; for LIVER: tissue Liver; for ALP / ALT / AST / CRE / DBIL / GLC / IP / K / LDH / Na / PL / RALB / TBIL / TC / TG / TP / gamma-GTP: tissue Plasma
# [1] = 0 mg/kg, 72 h, dose level Control, time 3 day
# [2] = 0 mg/kg, […], dose level Control, time 7 day
# [3] = 0 mg/kg, […], dose level Control, time 14 day
# [4] = 0 mg/kg, […], dose level Control, time 28 day
# [5] = 100 mg/kg, 72 h, dose level Low, time 3 day
# [6] = 100 mg/kg, […], dose level Low, time 7 day
# [7] = 100 mg/kg, […], dose level Low, time 14 day
# [8] = 100 mg/kg, […], dose level Low, time 28 day
smiles,measurement,setting,value
C#C[C@]1(O)CC[C@H]2[C@@H]3CCC4=Cc5oncc5C[C@]4(C)[C@H]3CC[C@@]21C [DANAZOL],TERMINAL_BW,[1],236.4 g
same,APTT,[1],23.9 s
same,Bas,[1],0%
same,Eos,[1],0.8%
same,Fbg,[1],304.4 mg/dL
same,Hb,[1],13.4 g/dL
same,Ht,[1],40.8%
same,Lym,[1],77.4%
same,MCHC,[1],32.7%
same,MCV,[1],63.8 fL
same,Mono,[1],3%
same,Neu,[1],17.2%
same,PT,[1],15.5 s
same,Plat,[1],120.7 x10_4/uL
same,RBC,[1],639.8 x10_4/ul
same,Ret,[1],6.7%
same,WBC,[1],80.8 x10_2/uL
same,KIDNEY_L,[1],1 g
same,KIDNEY_R,[1],1 g
same,KIDNEY_TOTAL,[1],2 g
same,LIVER,[1],11.6 g
same,ALP,[1],1436.8 IU/L
same,ALT,[1],45.8 IU/L
same,AST,[1],72.4 IU/L
same,CRE,[1],0.2 mg/dL
same,DBIL,[1],0 mg/dL
same,GLC,[1],197.6 mg/dL
same,IP,[1],7.8 mg/dL
same,K,[1],4.2 meq/L
same,LDH,[1],190 IU/L
same,Na,[1],142.6 meq/L
same,PL,[1],140 mg/dL
same,RALB,[1],3.1 g/dL
same,TBIL,[1],0.008 mg/dL
same,TC,[1],72.2 mg/dL
same,TG,[1],95.6 mg/dL
same,TP,[1],5.5 g/dL
same,gamma-GTP,[1],1.6 IU/L
same,TERMINAL_BW,[2],266.9 g
same,TERMINAL_BW,[3],328.6 g
same,TERMINAL_BW,[4],402.2 g
same,APTT,[2],22.8 s
same,Bas,[2],0%
same,Eos,[2],1%
same,Fbg,[2],302.8 mg/dL
same,Hb,[2],13.8 g/dL
same,Ht,[2],40.8%
same,Lym,[2],76.8%
same,MCHC,[2],33.9%
same,MCV,[2],60.1 fL
same,Mono,[2],3%
same,Neu,[2],18.8%
same,PT,[2],15.2 s
same,Plat,[2],116.5 x10_4/uL
same,RBC,[2],678.8 x10_4/ul
same,Ret,[2],5.9%
same,WBC,[2],114.8 x10_2/uL
same,APTT,[3],24.6 s
same,Bas,[3],0%
same,Eos,[3],0.8%
same,Fbg,[3],325.6 mg/dL
same,Hb,[3],14.5 g/dL
same,Ht,[3],41.5%
same,Lym,[3],83%
same,MCHC,[3],34.9%
same,MCV,[3],60.6 fL
same,Mono,[3],2%
same,Neu,[3],13.4%
same,PT,[3],15.3 s
same,Plat,[3],124.1 x10_4/uL
same,RBC,[3],685.8 x10_4/ul
same,Ret,[3],3.8%
same,WBC,[3],122.1 x10_2/uL
same,APTT,[4],23.5 s
same,Bas,[4],0%
same,Eos,[4],1%
same,Fbg,[4],293 mg/dL
same,Hb,[4],14.6 g/dL
same,Ht,[4],42.9%
same,Lym,[4],82.8%
same,MCHC,[4],34.1%
same,MCV,[4],57.9 fL
same,Mono,[4],1.8%
same,Neu,[4],13.6%
same,PT,[4],15.9 s
same,Plat,[4],101.9 x10_4/uL
same,RBC,[4],740 x10_4/ul
same,Ret,[4],2.1%
same,WBC,[4],119.8 x10_2/uL
same,KIDNEY_L,[2],1.1 g
same,KIDNEY_R,[2],1.1 g
same,KIDNEY_TOTAL,[2],2.3 g
same,KIDNEY_L,[3],1.3 g
same,KIDNEY_R,[3],1.4 g
same,KIDNEY_TOTAL,[3],2.7 g
same,KIDNEY_L,[4],1.4 g
same,KIDNEY_R,[4],1.4 g
same,KIDNEY_TOTAL,[4],2.8 g
same,LIVER,[2],12 g
same,LIVER,[3],14.6 g
same,LIVER,[4],15.8 g
same,ALP,[2],1763.8 IU/L
same,ALT,[2],42 IU/L
same,AST,[2],69.6 IU/L
same,CRE,[2],0.2 mg/dL
same,DBIL,[2],0 mg/dL
same,GLC,[2],202.8 mg/dL
same,IP,[2],7.2 mg/dL
same,K,[2],4.4 meq/L
same,LDH,[2],184 IU/L
same,Na,[2],141.8 meq/L
same,PL,[2],157 mg/dL
same,RALB,[2],3 g/dL
same,TBIL,[2],0.004 mg/dL
same,TC,[2],80.4 mg/dL
same,TG,[2],106.8 mg/dL
same,TP,[2],5.5 g/dL
same,gamma-GTP,[2],1.6 IU/L
same,ALP,[3],1603.8 IU/L
same,ALT,[3],36.8 IU/L
same,AST,[3],65.6 IU/L
same,CRE,[3],0.2 mg/dL
same,DBIL,[3],0 mg/dL
same,GLC,[3],188.2 mg/dL
same,IP,[3],7.2 mg/dL
same,K,[3],4.2 meq/L
same,LDH,[3],186.6 IU/L
same,Na,[3],142.2 meq/L
same,PL,[3],158 mg/dL
same,RALB,[3],3.1 g/dL
same,TBIL,[3],0.004 mg/dL
same,TC,[3],74.4 mg/dL
same,TG,[3],139.8 mg/dL
same,TP,[3],5.8 g/dL
same,gamma-GTP,[3],3 IU/L
same,ALP,[4],1301.4 IU/L
same,ALT,[4],41.8 IU/L
same,AST,[4],63.8 IU/L
same,CRE,[4],0.2 mg/dL
same,DBIL,[4],0 mg/dL
same,GLC,[4],200.4 mg/dL
same,IP,[4],6.4 mg/dL
same,K,[4],4 meq/L
same,LDH,[4],141.6 IU/L
same,Na,[4],141.8 meq/L
same,PL,[4],144.2 mg/dL
same,RALB,[4],3 g/dL
same,TBIL,[4],0 mg/dL
same,TC,[4],71 mg/dL
same,TG,[4],118.2 mg/dL
same,TP,[4],5.9 g/dL
same,gamma-GTP,[4],3.4 IU/L
same,TERMINAL_BW,[5],235.6 g
same,APTT,[5],23.6 s
same,Bas,[5],0%
same,Eos,[5],1%
same,Fbg,[5],344.8 mg/dL
same,Hb,[5],13.5 g/dL
same,Ht,[5],41%
same,Lym,[5],77%
same,MCHC,[5],32.8%
same,MCV,[5],63 fL
same,Mono,[5],2.8%
same,Neu,[5],19%
same,PT,[5],16.3 s
same,Plat,[5],115.1 x10_4/uL
same,RBC,[5],651.2 x10_4/ul
same,Ret,[5],6.3%
same,WBC,[5],91.5 x10_2/uL
same,KIDNEY_L,[5],1 g
same,KIDNEY_R,[5],1 g
same,KIDNEY_TOTAL,[5],2.1 g
same,LIVER,[5],11.7 g
same,ALP,[5],1493.6 IU/L
same,ALT,[5],45.6 IU/L
same,AST,[5],72.4 IU/L
same,CRE,[5],0.2 mg/dL
same,DBIL,[5],0 mg/dL
same,GLC,[5],187.2 mg/dL
same,IP,[5],7 mg/dL
same,K,[5],4.3 meq/L
same,LDH,[5],168.2 IU/L
same,Na,[5],143 meq/L
same,PL,[5],131.2 mg/dL
same,RALB,[5],3.1 g/dL
same,TBIL,[5],0 mg/dL
same,TC,[5],55.2 mg/dL
same,TG,[5],161.4 mg/dL
same,TP,[5],5.7 g/dL
same,gamma-GTP,[5],1.8 IU/L
same,TERMINAL_BW,[6],261.4 g
same,TERMINAL_BW,[7],310 g
same,TERMINAL_BW,[8],405.6 g
same,APTT,[6],25 s
same,Bas,[6],0%
same,Eos,[6],0.4%
same,Fbg,[6],318 mg/dL
same,Hb,[6],13.7 g/dL
same,Ht,[6],40.4%
same,Lym,[6],84%
same,MCHC,[6],33.9%
same,MCV,[6],60.1 fL
same,Mono,[6],2%
same,Neu,[6],13%
same,PT,[6],15.7 s
same,Plat,[6],117.6 x10_4/uL
same,RBC,[6],672.6 x10_4/ul
same,Ret,[6],5.1%
same,WBC,[6],112.4 x10_2/uL
same,APTT,[7],26.6 s
same,Bas,[7],0%
same,Eos,[7],0.8%
same,Fbg,[7],354.4 mg/dL
same,Hb,[7],14.5 g/dL
same,Ht,[7],41.1%
same,Lym,[7],84.8%
same,MCHC,[7],35.2%
same,MCV,[7],60.3 fL
same,Mono,[7],1.8%
same,Neu,[7],12%
same,PT,[7],16.2 s
same,Plat,[7],134.9 x10_4/uL
same,RBC,[7],681.2 x10_4/ul
same,Ret,[7],3.3%
same,APTT,[8],26.9 s
same,Bas,[8],0%
same,Eos,[8],1%
same,Fbg,[8],326.6 mg/dL
same,Hb,[8],14.5 g/dL
same,Ht,[8],42.4%
same,Lym,[8],78.8%
same,MCHC,[8],34.2%
same,MCV,[8],56.1 fL
same,Mono,[8],1.6%
same,Neu,[8],17.6%
same,PT,[8],17.1 s
same,Plat,[8],109.1 x10_4/uL
same,RBC,[8],756.2 x10_4/ul
same,Ret,[8],2.4%
same,WBC,[8],85.7 x10_2/uL
same,KIDNEY_L,[6],1.1 g
same,KIDNEY_R,[6],1.1 g
same,KIDNEY_TOTAL,[6],2.2 g
same,KIDNEY_L,[7],1.3 g
same,KIDNEY_R,[7],1.3 g
same,KIDNEY_TOTAL,[7],2.6 g
same,KIDNEY_L,[8],1.5 g
same,KIDNEY_R,[8],1.5 g
same,KIDNEY_TOTAL,[8],2.9 g
same,LIVER,[6],12.7 g
same,LIVER,[7],14.9 g
same,LIVER,[8],18.3 g
same,ALP,[6],1505.8 IU/L
same,ALT,[6],39.6 IU/L
same,AST,[6],65 IU/L
same,CRE,[6],0.2 mg/dL
same,DBIL,[6],0 mg/dL
same,GLC,[6],181.8 mg/dL
same,IP,[6],6.2 mg/dL
same,K,[6],4.4 meq/L
same,LDH,[6],139.6 IU/L
same,Na,[6],143.2 meq/L
same,PL,[6],128.4 mg/dL
same,RALB,[6],3 g/dL
same,TBIL,[6],0.002 mg/dL
same,TC,[6],51.8 mg/dL
same,TG,[6],140.4 mg/dL
same,TP,[6],5.6 g/dL
same,gamma-GTP,[6],2.2 IU/L
same,ALP,[7],1681.6 IU/L
same,ALT,[7],38.4 IU/L
same,AST,[7],57.4 IU/L
same,CRE,[7],0.2 mg/dL
same,DBIL,[7],0 mg/dL
same,GLC,[7],182.8 mg/dL
same,IP,[7],6.8 mg/dL
same,K,[7],4.1 meq/L
same,LDH,[7],154 IU/L
same,Na,[7],143.6 meq/L
same,PL,[7],132.8 mg/dL
same,RALB,[7],3.1 g/dL
same,TBIL,[7],0 mg/dL
same,TC,[7],49 mg/dL
same,TG,[7],177.6 mg/dL
same,TP,[7],6 g/dL
same,gamma-GTP,[7],2.6 IU/L
same,ALP,[8],1348.8 IU/L
same,ALT,[8],39.8 IU/L
same,AST,[8],59.2 IU/L
same,CRE,[8],0.2 mg/dL
same,DBIL,[8],0 mg/dL
same,GLC,[8],191.4 mg/dL
same,IP,[8],6.1 mg/dL
same,K,[8],3.9 meq/L
same,LDH,[8],121.8 IU/L
same,Na,[8],142.8 meq/L
same,PL,[8],142.4 mg/dL
same,RALB,[8],3 g/dL
same,TBIL,[8],0 mg/dL
same,TC,[8],46.6 mg/dL
same,TG,[8],334.4 mg/dL
same,TP,[8],6.2 g/dL
same,gamma-GTP,[8],3.2 IU/L
